Drawing on patent publication US20230145835A1, “Modulators of Alpha-4-beta-7 Integrin and MAdCAM” (48HD Biopharma Inc., priority 2021, published 2023), this text covers IC50 for 15 molecules.

The IC50 is the concentration that inhibits the measured activity by half.

Numbered stars: 1 amine (or outer) side, 2 acyl side, 3 side chain; on linkers, the order of the positions; unused ones are H or OH. Bridge positions count the residues as written; N and C are the ends. Square brackets hold non-standard residues; d marks the D form. Peptide text beside a SMILES is read from it. X3 = O=C(/C=N/OCCCCCCOc1cc(C[*:2])cc(C[*:3])c1)[*:1]; X5 = O=C(CCCCCCOc1cc(C[*:2])cc(C[*:3])c1)[*:1]; X6 = CC[C@@H](C)C(N[*:1])C(=O)[*:2]; tBuAla = CC(C)(C)C[C@H](N)C(=O)O; Cba = N[C@@H](CC1CCC1)C(=O)O; hSer = N[C@@H](CCO)C(=O)O; Nle = CCCC[C@H](N)C(=O)O

The target in one test is T1, rh-integrin α4β7/LPAM-1 (Homo sapiens, UniProt P13612+P26010).
T1 sequence (P13612 34-977 limits assumed): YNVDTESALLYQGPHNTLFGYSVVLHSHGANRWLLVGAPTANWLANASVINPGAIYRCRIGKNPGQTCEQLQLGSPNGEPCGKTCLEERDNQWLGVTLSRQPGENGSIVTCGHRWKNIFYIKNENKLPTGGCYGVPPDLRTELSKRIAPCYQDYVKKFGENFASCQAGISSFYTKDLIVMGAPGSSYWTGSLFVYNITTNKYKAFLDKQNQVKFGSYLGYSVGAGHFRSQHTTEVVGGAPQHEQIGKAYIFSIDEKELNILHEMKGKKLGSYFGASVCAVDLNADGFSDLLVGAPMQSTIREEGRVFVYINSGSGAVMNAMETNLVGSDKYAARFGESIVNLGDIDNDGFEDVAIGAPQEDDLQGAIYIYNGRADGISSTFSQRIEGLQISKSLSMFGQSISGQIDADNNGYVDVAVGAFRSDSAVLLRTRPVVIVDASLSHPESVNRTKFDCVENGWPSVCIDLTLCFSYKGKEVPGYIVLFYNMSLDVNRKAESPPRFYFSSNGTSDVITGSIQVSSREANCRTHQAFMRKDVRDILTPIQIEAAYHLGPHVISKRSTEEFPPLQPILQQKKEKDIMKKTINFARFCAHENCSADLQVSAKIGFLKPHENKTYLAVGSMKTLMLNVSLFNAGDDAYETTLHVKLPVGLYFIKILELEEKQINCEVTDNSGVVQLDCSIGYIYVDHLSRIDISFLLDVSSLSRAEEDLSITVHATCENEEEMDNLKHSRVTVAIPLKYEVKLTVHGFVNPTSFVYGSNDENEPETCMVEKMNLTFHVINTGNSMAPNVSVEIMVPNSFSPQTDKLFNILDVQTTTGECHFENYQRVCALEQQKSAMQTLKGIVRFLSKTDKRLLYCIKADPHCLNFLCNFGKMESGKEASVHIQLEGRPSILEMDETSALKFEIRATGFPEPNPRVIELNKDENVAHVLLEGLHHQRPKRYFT
T1 sequence (P26010 20-723 limits assumed): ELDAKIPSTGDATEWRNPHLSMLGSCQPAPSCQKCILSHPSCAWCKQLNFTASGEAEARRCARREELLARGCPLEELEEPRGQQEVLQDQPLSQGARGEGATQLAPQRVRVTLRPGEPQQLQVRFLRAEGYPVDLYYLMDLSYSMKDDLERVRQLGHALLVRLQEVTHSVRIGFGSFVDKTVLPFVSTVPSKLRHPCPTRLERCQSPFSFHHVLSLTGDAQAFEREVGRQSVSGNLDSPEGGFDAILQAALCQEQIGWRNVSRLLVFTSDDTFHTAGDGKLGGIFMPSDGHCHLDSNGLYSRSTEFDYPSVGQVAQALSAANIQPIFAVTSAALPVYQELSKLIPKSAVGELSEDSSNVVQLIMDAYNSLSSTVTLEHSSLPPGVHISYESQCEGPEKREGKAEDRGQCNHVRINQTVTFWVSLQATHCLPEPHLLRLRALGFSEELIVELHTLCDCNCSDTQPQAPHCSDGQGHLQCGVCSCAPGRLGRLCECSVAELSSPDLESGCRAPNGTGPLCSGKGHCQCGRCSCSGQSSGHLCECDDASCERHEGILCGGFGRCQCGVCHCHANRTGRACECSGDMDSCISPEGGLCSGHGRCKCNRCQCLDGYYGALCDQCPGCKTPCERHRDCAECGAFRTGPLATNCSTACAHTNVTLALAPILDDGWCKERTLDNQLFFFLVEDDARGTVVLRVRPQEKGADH
Briefly: α4β7-MadCAM Competition ELISA (Example 4). The class given is binding. Particulars: IC50, Table 3 Representative compounds; inhibition of MAdCAM binding to coated α4β7. The procedure:
After washing with wash buffer, 200 μL assay buffer was added to each well and incubated for one hour at 28° C. After another wash with wash buffer, 100 μL of a MAdCAM and peptide mixture in assay buffer was added to each well and incubated for one hour at 28° C., followed by washing with wash buffer.
(In general: In an ELISA, binding on a coated surface is turned into a signal by an enzyme label.)
As for `CC[C@H](C)[C@@H]1NC(=O)[C@H](CC(=O)O)NC(=O)[C@H](CCOC)NC(=O)[C@@H]2CCCN2C(=O)[C@@H]2CSCc3cc(cc(c3)OCCCCCCO/N=C/C(=O)N[C@@H](CCCNC(=N)N)C(=O)N2)CSC[C@@H](C(N)=O)NC(=O)[C@H](CCC(=O)O)NC(=O)[C@H](Cc2ccc(O)cc2)NC(=O)[C@H](Cc2c[nH]c3ccccc23)NC1=O` [compound 48, TSL6- SRCP{Hse(OMe)} DIWYEC] (RCP[hSer](Me)DIWYEC-NH2; linker N-2-10 via X3), the IC50 amounted to 1710 nM.

The same test, now with this note: Table 3 Representative compounds; inhibition of MAdCAM binding to coated α4β7; read-out: IC50.
As for `CC(C)C[C@@H]1NC(=O)[C@@H]2CCCN2C(=O)[C@@H]2CSCc3cc(cc(c3)OCCCCCCO/N=C/C(=O)N[C@@H](CCCCN)C(=O)N2)CSC[C@@H](C(N)=O)NC(=O)[C@H](CO)NC(=O)[C@@H]2CCCN2C(=O)[C@H](C(C)C)NC(=O)[C@H](CC(=O)O)NC1=O` [compound 31, TSL6- SKCPLDVPSC] (KCPLDVPSC-NH2; linker N-2-9 via X3), the IC50 was 723 nM. Same read-out and setting: the result for `CC(C)C[C@@H]1NC(=O)[C@@H]2CCCN2C(=O)[C@@H]2CSCc3cc(cc(c3)OCCCCCCO/N=C/C(=O)N[C@@H](CCCCN)C(=O)N2)CSC[C@@H](C(N)=O)NC(=O)[C@H](CCC(=O)O)NC(=O)[C@H]([C@@H](C)O)NC(=O)[C@@H]2CCCN2C(=O)[C@H]([C@@H](C)O)NC(=O)[C@H](CC(=O)O)NC1=O` [compound 34, TSL6- SKCPLDTPTEC] (KCPLDTPTEC-NH2; linker N-2-10 via X3) reads 748 nM; that for `CC(C)C[C@@H]1NC(=O)[C@@H]2CCCN2C(=O)[C@@H]2CSCc3cc(cc(c3)OCCCCCCO/N=C/C(=O)N[C@@H](CCCCN)C(=O)N2)CSC[C@@H](C(N)=O)NC(=O)[C@H](CCC(=O)O)NC(=O)[C@H](C)NC(=O)[C@@H]2CCCN2C(=O)[C@H]([C@@H](C)O)NC(=O)[C@H](CC(=O)O)NC1=O` [compound 35, TSL6- SKCPLDTPAEC] (KCPLDTPAEC-NH2; linker N-2-10 via X3), 796 nM. The same measure, in the same setting: the result for `CC[C@H](C)[C@@H]1NC(=O)[C@H](CC(=O)O)NC(=O)[C@H](CCSC)NC(=O)[C@@H]2CCCN2C(=O)[C@@H](NC(=O)[C@H](CCCNC(=N)N)NC(=O)[C@H](CO)NC(C)=O)CSSC[C@@H](C(N)=O)NC(=O)[C@H](CCC(=O)O)NC(=O)CNC(=O)[C@H](C)NC1=O` [compound 36] (Ac-SRCPMDIAGEC-NH2; disulfide 3-11) reads 932 nM; that for `CC[C@H](C)[C@@H]1NC(=O)[C@H](CC(=O)O)NC(=O)[C@H](CCSC)NC(=O)[C@@H]2CCCN2C(=O)[C@@H]2CSCc3cc(cc(c3)OCCCCCCO/N=C/C(=O)N[C@@H](C)C(=O)N2)CSC[C@@H](C(N)=O)NC(=O)[C@H]([C@@H](C)O)NC(=O)[C@@H]2CCCN2C1=O` [compound 37, TSL6- SACPMDIPTC] (ACPMDIPTC-NH2; linker N-2-9 via X3), 943 nM; that for `CC(C)C[C@@H]1NC(=O)[C@@H]2CCCN2C(=O)[C@@H]2CSCc3cc(cc(c3)OCCCCCCO/N=C/C(=O)N[C@@H](CCCNC(=N)N)C(=O)N2)CSC[C@@H](C(N)=O)NC(=O)[C@H](CCC(=O)O)NC(=O)[C@H](Cc2ccc(O)cc2)NC(=O)[C@H](C)NC(=O)[C@H]([C@@H](C)O)NC(=O)[C@H](CC(=O)O)NC1=O` [compound 38, TSL6- SKCPLDTAYEC] (RCPLDTAYEC-NH2; linker N-2-10 via X3), 1040 nM.

As to `CCCC[C@@H]1NC(=O)[C@@H]2CCCN2C(=O)[C@@H]2CSCc3cc(cc(c3)OCCCCCCO/N=C/C(=O)N[C@@H](CCCNC(=N)N)C(=O)N2)CSC[C@@H](C(N)=O)NC(=O)[C@H](CCC(=O)O)NC(=O)[C@H](Cc2ccc(O)cc2)NC(=O)[C@@H]2CCCN2C(=O)[C@H](CC(C)(C)C)NC(=O)[C@H](CC(=O)O)NC1=O` [compound 39, TSL6-SRCP{Nle}D {tBuAla}PYEC] (RCP[Nle]D[tBuAla]PYEC-NH2; linker N-2-10 via X3), the IC50 worked out at 1130 nM.

For the molecule `CC[C@H](C)[C@@H]1NC(=O)[C@H](CC(=O)O)NC(=O)[C@H](CCSC)NC(=O)[C@@H]2CCCN2C(=O)[C@@H]2CSCc3cc(cc(c3)OCCCCCCO/N=C/C(=O)N[C@@H](CCC(N)=O)C(=O)N2)CSC[C@@H](C(N)=O)NC(=O)[C@H]([C@@H](C)O)NC(=O)[C@@H]2CCCN2C1=O` [compound 40, TSL6- SQCPMDIPTC] (QCPMDIPTC-NH2; linker N-2-9 via X3), the IC50 was found to be 1270 nM. Still for that read-out and setting: to `CC(C)C[C@@H]1NC(=O)[C@@H]2CCCN2C(=O)[C@@H](NC(=O)[C@H](CCCCN)NC(=O)[C@@H](N)CO)CSSC[C@@H](C(N)=O)NC(=O)[C@H](CO)NC(=O)[C@@H]2CCCN2C(=O)[C@H](C(C)C)NC(=O)[C@H](CC(=O)O)NC1=O` [compound 41] (H-SKCPLDVPSC-NH2; disulfide 3-10) belongs 1300 nM; to `CC(C)C[C@@H]1NC(=O)[C@@H]2CCCN2C(=O)[C@@H]2CSCc3cc(cc(c3)OCCCCCCO/N=C/C(=O)N[C@@H](CCCCN)C(=O)N2)CSC[C@@H](C(N)=O)NC(=O)[C@H](CCC(=O)O)NC(=O)[C@H](Cc2ccc(O)cc2)NC(=O)[C@@H]2CCCN2C(=O)[C@H](C)NC(=O)[C@H](CC(=O)O)NC1=O` [compound 42, TSL6- SKCPLDAPYEC] (KCPLDAPYEC-NH2; linker N-2-10 via X3), 1400 nM. Same read-out and setting: to `CC[C@@H](C)C1NC(=O)[C@H](Cc2ccc(O)cc2)NC(=O)[C@H](CCCNC(=N)N)NC(=O)[C@H](CCC(=O)O)NC(=O)[C@H](C)NC(=O)[C@H](CC(=O)O)NC(=O)[C@@H]2CCCN2C(=O)[C@@H]2CSCc3cc(cc(c3)OCCCCCCO/N=C/C(=O)N[C@@H](CO)C(=O)N2)CSC[C@@H](C(N)=O)NC1=O` (stereo partly drawn) [compound 44, TSL6- SDCPDAERYIC] (SCPDAERY[X6]C-NH2; linker N-2-10 via X3) belongs 1460 nM; to `CCCC[C@@H]1NC(=O)[C@@H]2CCCN2C(=O)[C@@H]2CSCc3cc(cc(c3)OCCCCCCC(=O)NCC(=O)N[C@@H](CCCCN)C(=O)N2)CSC[C@@H](C(N)=O)NC(=O)[C@H](CCC(=O)O)NC(=O)[C@H](CCC(N)=O)NC(=O)[C@H](Cc2c[nH]c3ccccc23)NC(=O)[C@H](CC2CCC2)NC(=O)[C@H](CC(=O)O)NC1=O` [compound 45, TSLC7-GKCP{Nle}D {CbA}WQEC] (GKCP[Nle]D[Cba]WQEC-NH2; linker N-3-11 via X5), 1610 nM. The same measure, in the same setting: the result for `CC[C@H](C)[C@@H]1NC(=O)[C@H](CC(=O)O)NC(=O)[C@H](CCSC)NC(=O)[C@@H]2CCCN2C(=O)[C@@H]2CSCc3cc(cc(c3)OCCCCCCO/N=C/C(=O)N[C@@H](CCC(N)=O)C(=O)N2)CSC[C@@H](C(N)=O)NC(=O)[C@H](C)NC(=O)[C@@H]2CCCN2C1=O` [compound 46, TSL6- SQCPMDIPAC] (QCPMDIPAC-NH2; linker N-2-9 via X3) reads 1640 nM; that for `CC[C@H](C)[C@@H]1NC(=O)[C@H](CC(=O)O)NC(=O)[C@H](CCSC)NC(=O)[C@@H]2CCCN2C(=O)[C@@H](NC(=O)[C@H](CCC(N)=O)NC(=O)[C@H](CO)NC(C)=O)CSSC[C@@H](C(N)=O)NC(=O)[C@H]([C@@H](C)O)NC(=O)[C@@H]2CCCN2C1=O` [compound 47] (Ac-SQCPMDIPTC-NH2; disulfide 3-10), 1700 nM.
